Experimental data from US20240279232A1, “USE OF SUBSTITUTED 5-(4-METHYL-6-PHENYL-4H-BENZO[F]IMIDAZO[1,5-A][1,4] DIAZEPIN-3-YL)-1,2,4-O[…] THE TREATMENT OF INFLAMMATORY CONDITIONS” (priority 2021, published 2024).

How the values were obtained:
[1] = biological target: HERG (Homo sapiens, UniProt Q12809); assay: PDSP primary HERG binding; details: PDSP primary screening
Experimental: (§1) Because reduction of NO could not be reversed by GABAAR antagonists, the possible binding of MP-IV-010 to other cellular receptors was evaluated in collaboration with the NIMH Psychoactive Drug Screening Program.
(§2) Psychoactive Drug Screening Program. Detailed protocols for the primary and secondary radioligand binding assays can be found in the National Institute of Mental Health's Psychoactive Drug Screening Program (NIMH PDSP) Assay Protocol Book. Briefly, primary and secondary radioligand binding assays are carried out in a final of volume of 125 μL per well in appropriate binding buffer. The radioactive ligand concentration is close to the Kd. Total binding and nonspecific binding are determined in the absence and presence of 10 μM of appropriate reference compound, respectively. In brief, plates are usually incubated at room temperature and in the dark for 90 min. Reactions are stopped by vacuum filtration onto 0.3% polyethyleneimine (PEI) soaked 96-well filter mats using a 96-well Filtermate harvester, followed by three washes with cold PBS buffer. Scintillation cocktail is then melted onto the microwave-dried filters on a hot plate and radioactivity counted in a Microbeta counter. The data (n=6) were analyzed by nonlinear regression.

[2] = biological target: Alpha2B (Homo sapiens, UniProt P18089); assay: PDSP primary binding Alpha2B; details: PDSP primary screening
Chain of Alpha2B (P18089 whole entry): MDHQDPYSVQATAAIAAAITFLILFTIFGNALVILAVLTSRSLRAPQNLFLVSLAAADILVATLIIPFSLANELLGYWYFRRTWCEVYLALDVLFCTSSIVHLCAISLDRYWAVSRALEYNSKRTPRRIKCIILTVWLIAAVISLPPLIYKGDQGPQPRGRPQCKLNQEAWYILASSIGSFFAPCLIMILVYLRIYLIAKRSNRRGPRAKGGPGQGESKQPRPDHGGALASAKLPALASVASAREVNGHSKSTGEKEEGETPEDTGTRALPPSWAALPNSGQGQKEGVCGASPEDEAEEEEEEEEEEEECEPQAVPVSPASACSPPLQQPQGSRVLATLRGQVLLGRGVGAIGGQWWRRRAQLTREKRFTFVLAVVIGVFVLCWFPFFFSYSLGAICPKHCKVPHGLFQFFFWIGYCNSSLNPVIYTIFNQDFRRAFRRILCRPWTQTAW
Experimental: as §1, §2

[3] = biological target: H1 (Homo sapiens, UniProt P35367); assay: PDSP primary binding H1; details: PDSP primary screening
Experimental: as §1, §2

[4] = biological target: D5 (Homo sapiens, UniProt P21918); assay: PDSP primary binding D5; details: PDSP primary screening
Chain of D5 (P21918 whole entry): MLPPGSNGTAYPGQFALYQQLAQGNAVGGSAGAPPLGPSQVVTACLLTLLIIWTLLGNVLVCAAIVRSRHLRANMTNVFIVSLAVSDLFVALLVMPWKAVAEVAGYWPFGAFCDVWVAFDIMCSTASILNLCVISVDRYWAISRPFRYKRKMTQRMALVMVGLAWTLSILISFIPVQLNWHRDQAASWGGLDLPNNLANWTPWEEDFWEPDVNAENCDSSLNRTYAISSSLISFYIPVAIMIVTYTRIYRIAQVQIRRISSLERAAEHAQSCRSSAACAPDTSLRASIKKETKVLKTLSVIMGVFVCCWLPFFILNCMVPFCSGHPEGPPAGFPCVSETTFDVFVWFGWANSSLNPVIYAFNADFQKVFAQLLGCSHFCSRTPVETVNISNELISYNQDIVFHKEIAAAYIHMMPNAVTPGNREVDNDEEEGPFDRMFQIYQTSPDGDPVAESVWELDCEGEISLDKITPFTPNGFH
Experimental: as §1, §2

[5] = biological target: H3 (Homo sapiens, UniProt Q9Y5N1); assay: PDSP primary binding H3; details: PDSP primary screening
Chain of H3 (Q9Y5N1 whole entry): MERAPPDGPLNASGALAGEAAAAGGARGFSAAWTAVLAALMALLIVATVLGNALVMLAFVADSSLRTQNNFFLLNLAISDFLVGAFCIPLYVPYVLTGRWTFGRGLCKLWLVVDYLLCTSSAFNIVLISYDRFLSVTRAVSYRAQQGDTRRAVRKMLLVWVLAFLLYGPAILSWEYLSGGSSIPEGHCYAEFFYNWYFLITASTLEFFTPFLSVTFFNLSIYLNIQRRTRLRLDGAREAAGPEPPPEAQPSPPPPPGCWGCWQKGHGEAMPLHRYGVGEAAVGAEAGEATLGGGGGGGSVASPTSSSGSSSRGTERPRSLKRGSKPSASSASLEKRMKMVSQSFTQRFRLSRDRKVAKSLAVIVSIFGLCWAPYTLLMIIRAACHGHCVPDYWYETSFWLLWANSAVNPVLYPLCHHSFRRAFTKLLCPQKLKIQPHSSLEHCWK
Experimental: as §1, §2

[6] = biological target: D1 (Homo sapiens, UniProt P21728); assay: PDSP primary binding D1; details: PDSP primary screening
Experimental: as §1, §2

[7] = biological target: 5-HT3 (Homo sapiens, UniProt P46098); assay: PDSP primary binding 5-HT3; details: PDSP primary screening
Chain of 5-HT3 (P46098 24-478, species assumed): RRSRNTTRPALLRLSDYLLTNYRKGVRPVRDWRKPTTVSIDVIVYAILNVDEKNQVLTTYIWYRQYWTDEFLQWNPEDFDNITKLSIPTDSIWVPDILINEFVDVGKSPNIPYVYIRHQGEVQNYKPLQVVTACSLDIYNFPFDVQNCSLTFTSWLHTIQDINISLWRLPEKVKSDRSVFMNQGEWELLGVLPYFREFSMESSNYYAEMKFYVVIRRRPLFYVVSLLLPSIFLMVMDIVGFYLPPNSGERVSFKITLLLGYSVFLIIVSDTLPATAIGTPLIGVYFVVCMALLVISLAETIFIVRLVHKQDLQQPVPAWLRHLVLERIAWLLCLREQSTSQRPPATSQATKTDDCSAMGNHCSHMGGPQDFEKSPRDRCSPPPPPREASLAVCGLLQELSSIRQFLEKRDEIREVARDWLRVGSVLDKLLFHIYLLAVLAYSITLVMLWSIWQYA
Experimental: as §1, §2

[8] = biological target: D3 (Homo sapiens, UniProt P35462); assay: PDSP primary binding D3; details: PDSP primary screening
Chain of D3 (P35462 whole entry): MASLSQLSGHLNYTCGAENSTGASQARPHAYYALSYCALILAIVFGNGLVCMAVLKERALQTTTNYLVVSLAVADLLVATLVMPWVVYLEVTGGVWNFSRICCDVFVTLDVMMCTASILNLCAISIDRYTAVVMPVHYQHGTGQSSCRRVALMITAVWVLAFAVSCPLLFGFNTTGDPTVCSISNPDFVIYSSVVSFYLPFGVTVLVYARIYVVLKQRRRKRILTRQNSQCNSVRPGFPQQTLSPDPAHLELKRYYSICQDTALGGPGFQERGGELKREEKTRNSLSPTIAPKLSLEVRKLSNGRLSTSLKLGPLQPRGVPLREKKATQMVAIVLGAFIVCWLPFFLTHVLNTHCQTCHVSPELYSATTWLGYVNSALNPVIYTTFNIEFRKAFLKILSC
Experimental: as §1, §2

[9] = system: iNOS; assay: iNOS activity in activated microglia after compound treatment; format: cell-based, mouse; details: 50 μM, treatment for 24 h
Experimental: The cellular proteins were isolated from mouse microglia treated with vehicle and mouse microglia activated with IFNγ/LPS and treated for 24 hours with vehicle or 50 μM MP-IV-010. The specific iNOS activity was determined with an Abcam INOS Activity Assay kit (n=4).
Next, the possible involvement of INOS in MP-IV-010 (and structurally similar compound GL-IV-03) mediated reduction of NO in activated microglia was investigated. INOS activity was measured in activated microglia after a 24-hour treatment with MP-IV-010. Second, proteins were harvested from microglia activated for 24 hours with LPS/INFγ, followed by a 2-hour treatment with MP-IV-010 before measuring iNOS activity. Finally, mRNA and protein levels were quantified for GL-IV-03 treated activated microglia to examine the transcriptional regulation of iNOS.
iNOS activity assay. Mouse microglia were activated with 50 ng/mL LPS (Invivogen, NC9836) and 150 U/mL IFNγ (R&D Systems, 485MI100), and treated with compounds of interest in 6 well plates for 2 or 24 hours. […] Protein was collected, quantified, and analyzed with the Nitric Oxide Synthase Activity kit (Abcam, ab211083) with minor alterations to the established protocol. […] Absorbance at 540 nm was measured using a TECAN Infinite M1000 plate reader. Significance (n=3) was analyzed by ANOVA.

[10] = biological target: 5-HT1E (Homo sapiens, UniProt P28566); assay: PDSP primary binding 5-HT1E; details: PDSP primary screening
Experimental: as §1, §2

[11] = biological target: Alpha2A (Homo sapiens, UniProt P08913); assay: PDSP primary binding Alpha2A; details: PDSP primary screening
Chain of Alpha2A (P08913 whole entry): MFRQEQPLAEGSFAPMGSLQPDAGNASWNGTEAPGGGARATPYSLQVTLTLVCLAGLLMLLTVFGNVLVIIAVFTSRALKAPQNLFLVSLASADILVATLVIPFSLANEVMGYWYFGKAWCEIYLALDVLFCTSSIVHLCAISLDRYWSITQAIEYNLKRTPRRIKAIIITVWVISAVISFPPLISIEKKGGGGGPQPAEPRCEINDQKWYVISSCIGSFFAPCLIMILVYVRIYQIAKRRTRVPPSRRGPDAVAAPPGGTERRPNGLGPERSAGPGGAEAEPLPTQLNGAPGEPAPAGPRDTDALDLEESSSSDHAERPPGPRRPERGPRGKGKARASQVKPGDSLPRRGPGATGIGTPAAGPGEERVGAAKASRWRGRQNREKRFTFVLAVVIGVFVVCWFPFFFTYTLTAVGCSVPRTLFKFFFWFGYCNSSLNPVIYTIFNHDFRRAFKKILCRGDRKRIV
Experimental: as §1, §2

[12] = biological target: 5-HT2A (Homo sapiens, UniProt P28223); assay: PDSP primary binding 5-HT2A; details: PDSP primary screening
Experimental: as §1, §2

[13] = biological target: Beta2 (Homo sapiens, UniProt P07550); assay: PDSP primary binding Beta2; details: PDSP primary screening
Chain of Beta2 (P07550 whole entry): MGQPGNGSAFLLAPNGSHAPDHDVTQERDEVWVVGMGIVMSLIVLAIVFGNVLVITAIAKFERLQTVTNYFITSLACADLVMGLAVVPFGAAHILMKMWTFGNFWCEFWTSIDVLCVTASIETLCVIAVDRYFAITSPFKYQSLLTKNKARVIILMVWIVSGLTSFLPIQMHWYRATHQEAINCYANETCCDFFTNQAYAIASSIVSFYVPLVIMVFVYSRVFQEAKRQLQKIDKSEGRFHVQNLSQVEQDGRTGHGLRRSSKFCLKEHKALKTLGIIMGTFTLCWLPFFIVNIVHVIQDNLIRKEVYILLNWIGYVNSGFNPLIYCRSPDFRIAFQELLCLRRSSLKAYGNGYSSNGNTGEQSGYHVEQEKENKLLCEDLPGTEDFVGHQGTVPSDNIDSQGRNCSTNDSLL
Experimental: as §1, §2

[14] = biological target: M4 (Homo sapiens, UniProt P08173); assay: PDSP primary binding M4; details: PDSP primary screening
Chain of M4 (P08173 whole entry): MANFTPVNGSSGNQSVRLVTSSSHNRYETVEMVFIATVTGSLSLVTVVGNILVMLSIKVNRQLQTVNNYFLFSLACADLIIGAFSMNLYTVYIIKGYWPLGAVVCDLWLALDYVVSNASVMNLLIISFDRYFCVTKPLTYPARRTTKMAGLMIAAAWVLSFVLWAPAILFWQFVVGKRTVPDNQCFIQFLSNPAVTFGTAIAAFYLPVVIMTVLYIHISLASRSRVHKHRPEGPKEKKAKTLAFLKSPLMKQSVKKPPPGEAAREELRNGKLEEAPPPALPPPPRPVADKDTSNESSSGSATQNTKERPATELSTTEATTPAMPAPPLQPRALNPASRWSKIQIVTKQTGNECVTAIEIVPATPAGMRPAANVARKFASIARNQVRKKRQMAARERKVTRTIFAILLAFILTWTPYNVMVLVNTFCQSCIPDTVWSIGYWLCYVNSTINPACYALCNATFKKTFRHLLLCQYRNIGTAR
Experimental: as §1, §2

[15] = biological target: Alpha2C (Homo sapiens, UniProt P18825); assay: PDSP primary binding Alpha2C; details: PDSP primary screening
Chain of Alpha2C (P18825 whole entry): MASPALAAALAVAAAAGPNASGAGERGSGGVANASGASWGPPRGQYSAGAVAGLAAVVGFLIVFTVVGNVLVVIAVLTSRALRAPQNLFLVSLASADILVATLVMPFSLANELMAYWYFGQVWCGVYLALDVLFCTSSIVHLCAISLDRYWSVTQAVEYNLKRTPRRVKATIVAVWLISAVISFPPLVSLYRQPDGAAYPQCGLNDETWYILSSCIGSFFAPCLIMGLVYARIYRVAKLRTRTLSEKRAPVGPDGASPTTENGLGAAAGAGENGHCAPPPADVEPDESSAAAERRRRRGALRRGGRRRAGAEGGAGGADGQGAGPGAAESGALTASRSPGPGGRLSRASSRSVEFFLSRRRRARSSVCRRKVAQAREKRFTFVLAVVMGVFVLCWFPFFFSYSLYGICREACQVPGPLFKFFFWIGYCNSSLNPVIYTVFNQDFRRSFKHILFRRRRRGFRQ
Experimental: as §1, §2

[16] = biological target: 5-HT1B (Homo sapiens, UniProt P28222); assay: PDSP primary binding 5-HT1B; details: PDSP primary screening
Chain of 5-HT1B (P28222 whole entry, species assumed): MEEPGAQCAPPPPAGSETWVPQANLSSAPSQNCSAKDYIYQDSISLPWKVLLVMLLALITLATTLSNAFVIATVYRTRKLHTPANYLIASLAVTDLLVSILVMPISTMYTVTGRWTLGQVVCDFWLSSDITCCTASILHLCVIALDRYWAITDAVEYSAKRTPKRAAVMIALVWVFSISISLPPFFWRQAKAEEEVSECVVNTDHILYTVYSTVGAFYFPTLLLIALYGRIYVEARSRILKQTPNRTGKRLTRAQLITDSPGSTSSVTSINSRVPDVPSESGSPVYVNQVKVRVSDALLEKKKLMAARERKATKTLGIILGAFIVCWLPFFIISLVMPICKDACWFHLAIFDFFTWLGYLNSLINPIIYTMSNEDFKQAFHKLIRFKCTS
Experimental: as §1, §2

[17] = biological target: M5 (Homo sapiens, UniProt P08912); assay: PDSP primary binding M5; details: PDSP primary screening
Chain of M5 (P08912 whole entry): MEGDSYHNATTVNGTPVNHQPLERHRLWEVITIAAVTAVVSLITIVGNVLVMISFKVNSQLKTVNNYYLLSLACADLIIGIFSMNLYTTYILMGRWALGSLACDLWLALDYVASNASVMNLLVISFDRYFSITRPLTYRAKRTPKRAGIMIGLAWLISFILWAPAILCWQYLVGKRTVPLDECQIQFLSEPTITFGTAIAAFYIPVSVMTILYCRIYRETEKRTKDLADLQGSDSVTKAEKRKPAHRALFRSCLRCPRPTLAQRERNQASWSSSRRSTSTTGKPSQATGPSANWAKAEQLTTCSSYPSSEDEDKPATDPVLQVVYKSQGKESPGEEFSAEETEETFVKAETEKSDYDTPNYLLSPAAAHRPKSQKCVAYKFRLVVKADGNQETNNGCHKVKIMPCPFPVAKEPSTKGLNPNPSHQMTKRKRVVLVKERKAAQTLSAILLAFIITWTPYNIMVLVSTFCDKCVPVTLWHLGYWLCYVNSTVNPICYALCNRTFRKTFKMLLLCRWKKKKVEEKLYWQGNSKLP
Experimental: as §1, §2

[18] = system: iNOS mRNA; assay: iNOS RT-qPCR in activated microglia; format: cell-based, mouse; details: 10 μM
Experimental: Mouse microglia were activated with IFNγ/LPS and treated with vehicle or 10 μM GL-IV-03. mRNA was isolated after 15 min, 1 h, 3 h and 6 h and iNOS was quantified using RT-qPCR. Cycle numbers for each sample were normalized to GAPDH using the ΔCt method (n=3). Mouse microglia were activated with IFNγ/LPS and treated with vehicle or 10 μM GL-IV-03 for 24 h. Cellular protein was extracted and analyzed with the mouse iNOS ELISA kit from Abcam (n=3). *, (p<0.05), ** (p<0.01) or *** (p<0.001) significance was calculate with ANOVA.
iNOS RT-qPCR. 1×10^6 mouse microglia cells were plated in 6 well plates (VWR, 10062-892) in 1-2 mL of media, activated with 50 ng/ml LPS (Invivogen, NC9836) and 150 U/mL IFNγ (R&D Systems, 485MI100), and treated with compounds of interest. […] Plates were incubated for stated times at 37° C. and 5% CO2. mRNA was collected using QIAshredder (Qiagen, 79654) and RNeasy Mini Kit (Qiagen, 74104). mRNA was analyzed using the QuantiFast SYBR Green RT-PCR kit (Qiagen, 204154) along with iNOS primers (F. 5′-ACATCAGGTCGGCCATCACT-3′, R: 5′-CGTACCGGATGAGCTGTGAAT-3′). Expected product size was 87 bp. Data were acquired using an Eppendorf Mastercycler Pro and analyzed by the Delta Ct method. Each measurement was carried out in triplicate and significance analyzed by ANOVA. […]

## C#Cc1ccc2c(c1)C(c1ccccc1F)=N[C@H](C)c1c(-c3nc(C(C)C)no3)ncn1-2 [MP-IV-010, (R)-5-(8-ethynyl-6-(2-fluorophenyl)-4-methyl-4H-benzo[f]imidazo[1,5-a][1,4]diazepin-3-yl)-3-isopropyl-1,2,4-oxadiazole]
[1]
  Percent Competition HERG binding: 29%
[2]
  Percent Competition Alpha2B: 29%
[3]
  Percent Competition H1: 19%
[4]
  Percent Competition D5: 29%
[5]
  Percent Competition H3: −18%
[6]
  Percent Competition D1: 28%
[7]
  Percent Competition 5-HT3: 13%
[8]
  Percent Competition D3: 15%
[9]
  iNOS activity in activated microglia: completely inhibited
[10]
  Percent Competition 5-HT1E: −7%
[11]
  Percent Competition Alpha2A: 14%
[12]
  Percent Competition 5-HT2A: −1%
[13]
  Percent Competition Beta2: 20%
[14]
  Percent Competition M4: 8%
[15]
  Percent Competition Alpha2C: 31%
[16]
  Percent Competition 5-HT1B: 29%
[17]
  Percent Competition M5: 26%

## CCc1noc(-c2ncn3c2[C@@H](C)N=C(c2ccccc2F)c2cc(C4CC4)ccc2-3)n1 [GL-IV-03, (R)-5-(8-Cyclopropyl-6-(2-fluorophenyl)-4-methyl-4H-benzo[f]imidazo[1,5-a][1,4]diazepin-3-yl)-3-ethyl-1,2,4-oxadiazole]
[18]; 15, 60, and 180 minutes
  iNOS mRNA levels: reduced
[18]; after 6 h
  iNOS mRNA levels: increased
